{"source": "patent US20150072023A1", "about": "“[…] NITRIC OXIDE FOR TREATING RESPIRATORY DISEASES” (Advanced Inhalation Therapies (AIT) Ltd., priority 2013, published 2015)", "key": {"[1]": {"system": "human respiratory syncytial virus (rgRSV30)", "experiment": "Plaque assay of gNO-exposed respiratory syncytial virus", "type": "cell-based", "conditions": "160 ppm exogenous gaseous NO"}, "[2]": {"experiment": "Prospective phase I open label safety study of intermittent 160 ppm gNO inhalation in healthy adults", "type": "in vivo, human", "text": "10 healthy adult volunteer subjects (5 males, 5 females), aged 20 to 62 years, were enrolled in the study after screening their medical history, a physical examination, pulmonary function tests and blood values. Exclusion criteria included individuals less than 19 years of age, pregnant females and unwilling to practice birth control during the study, diagnosed with pulmonary disease, epistaxis, hemoptysis, methemoglobinemia, organ transplant recipient or receiving antibiotic therapy.\nAfter obtaining informed consent, treatment was initiated within 5 days of enrollment. Subjects were housed in a hospital ward and received 160 ppm gNO for 30 minutes every four hours (Q4h), five times a day, for five consecutive days by inhalation. Subjects returned for follow-up evaluations 3, 7 and 21 days after the final gNO administration. Subject safety was determined by monitoring vital signs, methemoglobin levels, lung function, blood chemistry, hematology, prothrombin time, inflammatory cytokine/chemokines levels and endothelial activation. These parameters were compared to baseline and at various time-points during and after gNO administration.\nSubjects were administered gNO through a modified disposable mouthpiece to maximize mixing. Inspiration was spontaneously initiated by the subject from a conventional intermittent positive pressure breathing respirator (Mark-7, Carefusion, USA) in fixed flow mode delivering 48 liters per minute (LPM). Flows of gas were verified with a calibrated mass flow meter (TSI, USA). Gaseous nitric oxide (gNO, obtained at INOmax, Ikaria, USA) at a concentration of 800 ppm delivered at a flow of 12 LPM was titrated into a distal delivery port on the mouth piece connected to the respirator during inspiratory phase only (pressure switch). The Mark 7 respirator was supplied by an air/oxygen blender (Bird Sentry, Carefusion, USA) set to deliver 26% oxygen.\nThe levels of gNO, NO2, O2 and methemoglobin were monitored during the administration of gNO. The target gas mixture was 160 ppm gNO with a nitrogen dioxide (NO2) level of less than 5 ppm and an oxygen (O2) level ranging from 21% to 25%. Inspiratory NO, NO2 and O2 levels were continuously monitored by sampling from the mouthpiece sample port located about 6 millimeters from the mouth of the subject with an AeroNOx (Pulmonox, AB, Canada) NO, NO2 and O2 electrochemical analyzer. Delivery safety was determined by the number of occasions that NO2 exceeded 5 ppm, gNO exceeding 10% variation and O2 dropping below 20% during gNO administration. A commercially available noninvasive pulse oximeter (Rad 57, Masimo Corporation, USA) was used to measure saturation levels at the periphery of methemoglobin (SpMet).\nThese parameters were measured continuously during every gNO administration course and for 3.5 hours after the first treatment of the day. Daily serum samples were collected and frozen at −80° C. and the serum […] level was measured using the Griess reagent.\nSubjects underwent full pulmonary function tests (PFT), including lung diffusing capacity (DLCO) by a trained technician utilizing a calibrated pulmonary function system (Jaeger MasterScreen, VIASYS Healthcare, USA) on screening and days 2, 8, 12 and 26. Spirometry test (Microloop by Micro Medical, England) was performed on days 1, 3 and 4. Effect of gNO on lung function and DLCO was determined by changes from baseline, treatment days and follow up days.\nGeneral medical examinations were performed by a pulmonary physician on screening and on days 8, 12 and 26 to obtain oxygenation and vital sign measurements. Abbreviated physical examination by a registered nurse was carried out each day prior to initiation of treatments on days 1-5. Oxygenation was measured with a pulse oximeter (Rad 57, Masimo Corporation, USA) which was used according to manufacturer's guidelines to measure functional oxygen saturation of arterial hemoglobin (SpO2) and heart rate. […]"}, "[3]": {"experiment": "Randomized double blind study of intermittent gNO inhalation in infants with bronchiolitis, interim results", "type": "in vivo, human", "conditions": "infants 2-12 months", "text": "The following is an exemplary protocol for clinical studies based on the methods according to embodiments of the present invention, aimed at treatment of bronchiolitis in humans. Specifically, the topic of the study is a randomized double blind evaluation of efficacy, safety and tolerability of nitric oxide given intermittently via inhalation to subjects with bronchiolitis.\nAn improvised inhalation device is based on standard hospital equipment and hospital oxygen source. For example, oxygen is supplied from the main hospital oxygen system via an oxygen blender, such as for example, Bird model 03800, followed by a hospital's oxygen mass flow meter. The oxygen-rich air is monitored so as to reach a maximal final concentration of about 40% O2. The blended air/oxygen is supplied to the subject via a Y-shape connector attached next to a standard hospital face mask such as for example, a Hospiltak mask by Unomedical Inc.\ngNO flow, tapped from a tank containing 800 ppm nitric oxide in 99.999% pure N2, supplied by an authorized gas provider in, for example, 50 or 30 litter containers with 120 bar or 150 bar respectively, is adjusted by passing through a standard hospital's regulator, such as for example CareFusion™ model 400, and the hospital mass flow meter, such as a CareFusion™ model 77063.\nThe gNO flow is adjusted before each inhalation cycle based on the gNO concentration detected in the subject's mask. After a fresh system calibration, the regulator and the mass flow meter are adjusted to deliver 160 ppm of gNO at 5 to 15 liters per minute. gNO is supplied to the subject via the second arm of the Y shaped connector (specified above) attached next to the face mask. Mask and tubing ports are used to monitor continuously gNO and NO2 concentrations and FiO2 values delivered to the subject.\nHalitus (exhalation) is monitored by, for example, end-tidal CO2 (EtCO2). EtCO2 is monitored using standard equipment such as Microcap® Portable Capnography Monitor, Cat.# CSO4179 by Oridion, Israel, with nasal prongs such as (Infant Neonate Cat.#008179 by Oridion, Israel.\nMethemoglobin (SpMet) and oxygen saturation or dissolved oxygen (SpO2) levels are monitored continuously using a dedicated monitor such as for example RAD 57 by Masimo.\nThe population for the study is 44 children of 2-12 months old diagnosed with bronchiolitis, whom required hospitalization (expected dropout rate is 10%). The population is split into two groups: Group 1, referred to as the treatment group, receives intermittent (5×30 minutes, a day) inhalation of 160 ppm gNO in addition to the standard treatment of O2 administration, for up to 5 days. Between gNO inhalations, the subjects continue to receive the standard inhalation treatment (O2). Group 2, referred to as the control group, receives continuous inhalation of the standard treatment (O2).\nGroup 1 (treatment group) receives the standard treatment (O2) combined with the inhalation via face mask of […] administered for 30 minutes every four hours, keeping a minimum of 3 hours between the end of one gNO inhalation cycle and the beginning of the next cycle, five times a day for five consecutive days or until a decision to discontinue therapy. The maximal cumulative exposure to nitric oxide is estimate at 2,000 ppm hours."}, "S. aureus": {"system": "S. aureus", "conditions": "agar plates exposed to gNO; cited from earlier work"}, "P. aeruginosa": {"system": "P. aeruginosa", "conditions": "agar plates exposed to gNO; cited from earlier work"}, "[4]": {"system": "influenza A/victoria/H3N2", "conditions": "160 ppm exogenous gNO, MDCK cell model; cited from earlier work"}, "[5]": {"system": "highly pathogenic Avian Influenza H7N3", "conditions": "cited from earlier work"}, "[6]": {"conditions": "300 ppm gNO, first 1-2 days, group of 10 rats; cited from earlier work"}, "[7]": {"system": "five planktonic species of methicillin resistant S. aureus (MRSA)", "conditions": "1,600 ppm hours of gNO; cited from earlier work"}, "[8]": {"conditions": "topical 200 ppm gNO, within the first three days of treatment; cited from earlier work"}, "[9]": {"conditions": "in vivo; cited from earlier work"}, "[10]": {"conditions": "cited from earlier work"}, "[11]": {"conditions": "250 gNO administration procedures, 10 subjects"}, "[12]": {"conditions": "during and after gNO administration"}}, "note": "“Also recorded” adds a separate entry of the source.", "data": [{"smiles": "[N]=O", "note": "[gNO, nitric oxide]", "values": [{"measurement": "infectivity", "setting": "[1]", "result": "reduced their infectivity"}, {"measurement": "average increase of SpMet in a single treatment course", "setting": "[2]; 160 ppm gNO for 30 minutes, ten individuals", "result": 0.9, "unit": "%"}, {"measurement": "adverse events / tolerability", "setting": "[2]; [11]", "result": "do not cause lung injury or other signs of adverse effects in humans; also recorded: Neither significant adverse events nor adverse events attributable to gNO inhalation occurred; also recorded: safe and well tolerated; also recorded: no significant adverse events were observed"}, {"measurement": "number of minor adverse events reported", "setting": "[2]; [11]", "result": "Three"}, {"measurement": "plasma cytokine levels of TNF, IL-6, IL-8, IL-10, IL-1b and IL-12p70", "setting": "[2]; cytometric bead array, vs baseline", "result": "unaffected; also recorded: remained constant"}, {"measurement": "pulmonary function tests", "setting": "[2]; [12]", "result": "impacts lung function only minimally; also recorded: remained unchanged compared to baseline values"}, {"measurement": "vital signs", "setting": "[2]; [12]", "result": "remained well within acceptable clinical margins"}, {"measurement": "accumulative or residual effect on SpMet", "setting": "[2]; five daily treatments for five consecutive days, follow-up 3, 7 and 21 days", "result": "no accumulative or lingering effect; also recorded: did not show any residual increase in SpMet"}, {"measurement": "vascular endothelial activation factors Ang-1, Ang-2, Ang-2/Ang-1 ratio", "setting": "[2]; plasma, vs baseline", "result": "not affected; also recorded: unaffected"}, {"measurement": "NO2 levels during treatment", "setting": "[3]", "result": "below 2 ppm"}, {"measurement": "pre-methemoglobin levels in each treatment", "setting": "[3]", "result": "less than 5%"}, {"measurement": "premature withdrawal due to NO related adverse effect", "setting": "[3]", "result": "no infant withdrew prematurely"}, {"measurement": "tolerability", "setting": "[3]", "result": "All patients tolerated the NO treatment"}, {"measurement": "time for SpMet to return to the baseline levels", "setting": "[3]; 160 ppm gNO 30 min", "result": 210, "unit": "min"}, {"measurement": "effect on bacterial growth", "setting": "S. aureus", "result": "bacteristatic effect"}, {"measurement": "effect on bacterial growth", "setting": "P. aeruginosa", "result": "bacteristatic effect"}, {"measurement": "viral replication and infectivity", "setting": "[4]", "result": "reduced their infectivity; also recorded: capable of reducing the infectivity"}, {"measurement": "viral replication and infectivity", "setting": "[5]", "result": "reduced their infectivity; also recorded: capable of reducing the infectivity"}, {"measurement": "number of animals that died", "setting": "[6]", "result": "Six"}, {"measurement": "bacterial population", "setting": "[7]", "result": "reduction in the population"}, {"measurement": "biofilm", "setting": "[8]", "result": "no longer visibly present"}, {"measurement": "radius of action from its site of origin", "setting": "[9]", "result": "approximately 200 microns"}, {"measurement": "inhalation threshold limit value (TLV) as time-weighted average (TWA)", "setting": "[10]; OSHA / Environmental Protection Agency", "result": 25, "unit": "ppm"}, {"measurement": "TLV-TWA in ppm hours units", "setting": "[10]; calculated", "result": 200, "unit": "ppm hours"}]}]}
